Data taken from US20220282325A1, “METHYLATION ASSAYS AND USES THEREOF” (The General Hospital Corporation, priority 2019, published 2022).

Legend:
HL-60 cells = experiment: XRBS DNA methylation profiling of decitabine-treated cells; format: cell-based, human; conditions: HL-60, 300 nM decitabine, five days
Description: (§1) In order to detect differential methylation across an isogenic system, cell lines were treated with 300 nM decitabine, which inhibits DNA methyltransferase enzymes through covalent entrapment on DNA (FIGS. 22A and 22B). HL-60 and OCI-AML3 were treated, as these had intermediate global methylation levels among the four cell lines examined, and profiled DNA methylation using expanded representation bisulfite sequencing (XRBS) (FIG. 22C).
(§2) For expanded representation bisulfite sequencing (XRBS) profiles, HL-60 and OCI-AML3 cells were treated with 300 nM decitabine in 6 well plates. Cells were harvested after 5 days and gDNA was extracted using Qiagen DNA Mini Blood Kit (51104). 10 ng of gDNA were used for each library preparation.
(§3) Before alignment, primer dimers were filtered using Cutadapt version 2.7 and the following parameters:--discard -a GCTCTTCCGATCT. Short read pairs were trimmed using TrimGalore version 0.6.5 and the following parameters: --paired --illumina --nextseq 20. Trimmed sequencing reads were then aligned to an in-silico bisulfate-converted reference genome (hg38 and mm10) using methylCtools version 1.0.0 and bwa mem version 0.7.17. […] Putative PCR duplicates were removed by considering the outer mapping position of both paired-end reads, as well as the random hexamer sequence that was trimmed prior to alignment and functioned as a unique molecular identifier (UMI). For library complexity analysis, alignments were downsampled prior to this step. DNA methylation calling was performed using methylCtools bcall and the --trimPE parameter. DNA methylation values, which are incorporated herein by reference for all purposes, were deposited on GEO (GSE149954, token: azujmeaezxqdxgr).
(§4) All downstream analyses were performed in R (version 3.6.2), making extensive use of the data.table and GenomicRanges packages. For many analyses, average DNA methylation values within genomic regions were used. Regions included CpG islands, promoters (1 kb up- and downstream of all transcription start sites of protein-coding genes), enhancers and CTCF binding sites (Encyclopedia of DNA Elements (ENCODE) narrowPeak files), and genomic 100 kb-windows. Average methylation values within these regions were calculated by summarizing calls for methylated and unmethylated CpGs across the entire region, and then calculating a single beta-value. For 100 kb-windows, CpGs within islands were not included. Minimum coverage thresholds were applied as indicated. Similarly, average methylation values were calculated for each genomic bin when visualized as heatmaps (genomic regions were separated in 100 equally-sized bins). Differential DNA methylation analysis was performed by sorting regions according to their difference in average methylation values (for enhancers and CTCF binding sites) or by applying a threshold (0.5) on the difference between the average methylation values of one cell line to the average of the other three cell lines (for promoters).

OCI-AML3 cells = experiment: as above; format: cell-based, human; conditions: OCI-AML3, 300 nM decitabine, five days, vs DMSO
Description: as §1, §2, §3, §4

With `Nc1ncn([C@H]2C[C@H](O)[C@@H](CO)O2)c(=O)n1` [decitabine] the “decrease of DNA methylation levels in CpG islands” value (HL-60 cells; vs DMSO) was 9.5%, the “decrease of DNA methylation levels in non-island CpGs” value (HL-60 cells; vs DMSO) was 20.2% and the “reduction of average global methylation levels” value (HL-60 cells; vs DMSO) was 19.1%. The “average methylation of non-island CpGs after decitabine treatment” value (HL-60 cells; DMSO control 68.1%) was 54.3%, the “decrease of DNA methylation levels in CpG islands” value (OCI-AML3 cells) was 11.2% and the “decrease of DNA methylation levels in non-island CpGs” value (OCI-AML3 cells) was 14.0%. The “reduction of average global methylation levels” value (OCI-AML3 cells) was 13.7%.
